Data on 6 compounds can be found in patent publication US20230304097A1, “PREDICTING CANCER RELAPSE AND TREATMENT OF CANCER DISEASES” (priority 2020, published 2023).

The structures appear in SMILES notation. “Also recorded” adds a separate entry of the source.

One series concerns GTS cells. Description: Drug treatment and proliferation assay (Resazurin/Alamar blue), recurrent tumor cells. In kind it is cell-based, mouse. How it is done:
Tumor cells (GTML, GTS and preGTS) were isolated as previously described from tumor bearing mice (Cancer Cell 2012, 21: 601-613) and cultured as neurospheres in serum-free conditions with Neurobasal (NB) media, additional B27 supplement, 100 units Penicillin and 0.1 mg/ml Streptomycin, 2 mM L-glutamine, 1:500 Antibiotic-Antimycotic, 20 ng/ml EGF and 20 ng/ml FGF-2. Human MB002 primary cell culture was obtained from Dr. Yoon Jae-Cho and cultured in serum-free conditions, 1:1 of Neurobasal Media (-vitamin A) and DMEM/F12 with Sodium Pyruvate, NEAA, HEPES, GlutaMAX, 100 units Penicillin and 0.1 mg/ml Streptomycin, B27 supplement, 20 ng/ml EGF and 20 ng/ml FGF-2, 1X LIF and 1X Heparin as previously described Clin Cancer Res 2014, 20: 912-925. Stable doxycycline-inducible SOX9wt and SOX9CPD mutant cell lines were generated as described (EMBO J 2016, 35: 2192-2212), lentiviruses were first packed in HEK293T cells by the specified pTRIPZ lentivector with the packaging plasmids, psPAX2 and pMD2.G. Supernatants containing viral particles (48 - 96 hours post transfection) were used to infect the target cells in the presence of freshly added hexadimethrine bromide ([…]). Seventy-two hours post-transfection, the cells were selected and maintained in appropriate culture medium containing puromycin (0.125 - 0.5 µg/mL).
To assess cell proliferation, 10 000 cells were plated in triplicates in 96-well plate. Proliferation was measured every 24 h for five days using Resazurin colorimetric assay. […] ThioTEPA was dissolved in DMSO and added similarly to a final concentration of 10-100 µM. Doxorubicin was dissolved in H2O and added to a final concentration of 100-120 nM. Spheres from pre-GT20 cells were treated with Cisplatin at a final concentration of 10 µM. Number of SOX9-positive cells per spheres was counted in 10 spheres in treated (Cisplatin) and untreated (DMSO) conditions. Statistical significance was calculated using a unpaired non-parametric Mann-Whitney test.
A general note: Alamar Blue is a resazurin reagent that responds to reducing activity.

A further series relates to GTML cells. Description: Drug treatment and proliferation assay (Resazurin/Alamar blue), primary tumor cells. In kind it is cell-based, mouse. On the procedure:
Tumor cells (GTML, GTS and preGTS) were isolated as previously described from tumor bearing mice (Cancer Cell 2012, 21: 601-613) and cultured as neurospheres in serum-free conditions with Neurobasal (NB) media, additional B27 supplement, 100 units Penicillin and 0.1 mg/ml Streptomycin, 2 mM L-glutamine, 1:500 Antibiotic-Antimycotic, 20 ng/ml EGF and 20 ng/ml FGF-2. Human MB002 primary cell culture was obtained from Dr. Yoon Jae-Cho and cultured in serum-free conditions, 1:1 of Neurobasal Media (-vitamin A) and DMEM/F12 with Sodium Pyruvate, NEAA, HEPES, GlutaMAX, 100 units Penicillin and 0.1 mg/ml Streptomycin, B27 supplement, 20 ng/ml EGF and 20 ng/ml FGF-2, 1X LIF and 1X Heparin as previously described Clin Cancer Res 2014, 20: 912-925. […]
To assess cell proliferation, 10 000 cells were plated in triplicates in 96-well plate. Proliferation was measured every 24 h for five days using Resazurin colorimetric assay. […] Number of SOX9-positive cells per spheres was counted in 10 spheres in treated (Cisplatin) and untreated (DMSO) conditions. Statistical significance was calculated using a unpaired non-parametric Mann-Whitney test.

The conditions of series [1]: in children and in adults; cited from earlier work.
A further series concerns GTML-pSOX9-GFP cells. The series is described as follows: FACS quantification of GFP (SOX9)-positive cells after cisplatin treatment. In kind it is cell-based, mouse. As to conditions: 24 h treatment. How it is done:
Tumor burdened GTML;SOX9-eGFP mice were sacrificed and tumors dissociated, cells cultured as we described above. Cells were harvested, accutased and filtered with 30 µm cell strainer, then sorted for GFP-positive (SOX9) cells (488_FITC-A) and GFP-negative cell population. For cisplatin treatment experiment, cells were treated with cisplatin 24 h before cell sorting. The BD FACSMelody was used for sorting and quantifying in this experiment. MB002-pSOX9-GFP cells were dissociated using accutase and sorted for GFP expression (488_FITC-A). The BD FACSarialll was used for this experiment and it was analyzed using BD FACSDiVa version 8.0.

The next series deals with pre-GT20 cells. Description: Cisplatin treatment of tumor sphere cultures, SOX9 staining and cell counts. It is filed as cell-based, mouse. As to conditions: pre-GTS tumor spheres, 10 µM, 72 h in culture. How it is done:
Brains were fixed in 4% PFA and embedded in paraffin block. preGT20 sphere cultures were fixed in 4 % PFA for a minimum of 12 hours at 4° C. and then embedded in HistoGel followed by paraffin embedding. 6-7 µm sections of paraffin-embedded tissue were used for all staining. The complete protocol for the IHC was described previously (Genes & development 2010, 24: 1059-1072).
To assess cell proliferation, 10 000 cells were plated in triplicates in 96-well plate. Proliferation was measured every 24 h for five days using Resazurin colorimetric assay. The MGMT inhibitor Lomeguatrib was dissolved in DMSO and added to cells 24 h post cell plating to a final concentration of 20 µM. ThioTEPA was dissolved in DMSO and added similarly to a final concentration of 10-100 µM. Doxorubicin was dissolved in H2O and added to a final concentration of 100-120 nM. Spheres from pre-GT20 cells were treated with Cisplatin at a final concentration of 10 µM. Number of SOX9-positive cells per spheres was counted in 10 spheres in treated (Cisplatin) and untreated (DMSO) conditions. Statistical significance was calculated using a unpaired non-parametric Mann-Whitney test.

Series [2] relates to GTML2 and GTML3 cerebellar allografts. Description: Survival of Nude mice allografted with GTML cell lines after dox diet (minimal residual disease). It is filed as in vivo, mouse. As to conditions: 7 days of dox treatment. On the procedure:
Injections of tumor cells into mouse brains were performed as thoroughly described elsewhere (Cancer Cell 2016, 29: 311-323; Cancer Cell 2012, 21: 601-613) and as follows. For allograft and in vivo transplantation studies, adult Nude mice were anesthetized and cerebellar allografts generated by injection of 100,000 cells into the cerebellum. Mice were monitored until phenotypic presentation of a brain tumor, at which point they were euthanized. At sacrifice, whole brains were excised and biopsies taken for experimental procedures. PDX models used included BT084 (metastatic SHH MB established in Dr. Till Milde’s lab, Heidelberg, Germany), Med-211FH, Med-411FH (metastatic Group 3 MBs established in Dr. Jim Olson’s lab, Seattle, USA) and ICb-1572MB (metastatic Group 3 MB established in Dr. Xiaonan Li’s lab, Houston, USA) all obtained from Dr. Robert Wechsler-Reya’s lab and used as described elsewhere (Cancer Cell 2016, 29: 311-323). Orthotopic PDX growth was studied in brain and spinal cord in NSG mice that were maintained in the animal facilities at Sanford Burnham Prebys Medical Discovery Institute (SBP) and at the Sanford Consortium for Regenerative Medicine. […]
All animal experiments were conducted once. Animal survival was graphically shown as a Kaplan Meier curve, made and assessed using GraphPad Prism 7 software. The p-value for survival curves is calculated using a LogRank test.

For the compound `COc1cc2ncnc(Nc3ccc(F)c(Cl)c3)c2cc1OCCCN1CCOCC1` [Gefitinib], the “specificity for targeting forebrain GTS cells” value with GTS cells (data not shown) is “not specific for targeting forebrain GTS cells”.

As for `Nc1nc(OCc2cc(Br)cs2)c2[nH]cnc2n1` [Lomeguatrib], the “proliferation of GTML cells” value in the series on GTML cells (20 µM, 24, 48 and 72 h, GTML3 and GTML13 cell lines) is “did not show any efficacy”. Moreover, the “proliferation of GTS cells, combination with ThioTEPA” value with GTS cells (10 µM Lomeguatrib added to ThioTEPA (10, 100 µM), 72 h) was “decreased proliferation of GTS tumor cells even further; also recorded: significantly decreases proliferation”. For the same compound, the “proliferation of GTS cells” value in the series with GTS cells (20 µM, 24, 48 and 72 h, GT20 and GT21 cell lines) is given as “significantly decreased proliferation”.

As to `CC(C)[C@H](N)C(=O)OCC(CO)OCn1cnc2c(=O)nc(N)[nH]c21` (stereo partly drawn) [ValGCV, valganciclovir], in series [1], the “blood brain barrier penetration” value is given as “penetrates the BBB well” and the “concentration in the cerebrospinal fluid (CSF)” value is “high concentrations”.

With `N.N.[Cl][Pt][Cl]` [cisplatin, Cisplatin], in the series with GTML-pSOX9-GFP cells (FACS of GFP-positive cells), the “number of SOX9-positive cells compared to DMSO control” value is “increases the number of SOX9-positive cells”. The SOX9-positive cells in the series on GTML-pSOX9-GFP cells (GFP-positive cells by FACS, increase from 2.4% (DMSO control)) was 8.6%. Besides, the “cell survival and apoptotic cell death” value in the series with pre-GT20 cells was “decreased cell survival and massive apoptotic cell death”. Further, the “number of SOX9-positive cells surviving the treatment” value in the series with pre-GT20 cells (vs DMSO) is “significant upregulation and increase in the number of SOX9-positive cells”.

Take `C[C@H]1c2cccc(O)c2C(=O)C2=C(O)[C@]3(O)C(=O)C(C(N)=O)=C(O)[C@@H](N(C)C)[C@@H]3[C@@H](O)[C@@H]21` [dox, doxycycline hyclate]: in series [2], the “overall survival, GTML2 allograft” value amounted to 16.5 weeks and the “overall survival, GTML3 allograft” value worked out at 9 weeks.

For `COc1cccc2c1C(=O)c1c(O)c3c(c(O)c1C2=O)C[C@@](O)(C(=O)CO)C[C@@H]3O[C@H]1C[C@H](N)[C@H](O)[C@H](C)O1` [doxorubicin], the “viable GTML cells” value in the series with GTML cells (200 nM, 72 h) is reported as “nearly half of the cells were still viable”. Besides, in the series on GTS cells (200 nM, 72 h), the “viable fGTS (forebrain recurrence) cells” value is on record as “completely depleted” and the “viable hGTS (hindbrain recurrence) cells” value is recorded as “nearly half of the cells were still viable”.
